The record followed here is PMC5911580, “YL143, a novel mutant selective irreversible EGFR inhibitor, overcomes EGFR^L858R, T790M‐mutant resistance in vitro and in vivo” (Cancer Medicine, 2018).

Where only a bound is given, the exact number is not on record here.

The target in one experiment is PDGFRA (Homo sapiens, UniProt P16234). Kind of experiment: Z'-Lyte kinase panel, PDGFRA. In kind it is biochemical. As to conditions: 1.5 hrs incubation. On the procedure:
(§1) Kinase activity assays were performed using the FRET-based Z′-Lyte assay according to the manufacturer’s instructions. The compounds were incubated with the kinase reaction mixture for 1.5 hrs before measurement. The data are means from two independent experiments and the variations are below 20%.

Another experiment concerns the target ZAK (Homo sapiens, UniProt Q9NYL2). Nature of the experiment: Z'-Lyte kinase panel, ZAK. Format: biochemical. Particulars: 1.5 hrs incubation. On the procedure:
as §1

Another experiment deals with AKT3 (Homo sapiens, UniProt Q9Y243). Kind of experiment: Z'-Lyte kinase panel, AKT3. Format: biochemical. As to conditions: 1.5 hrs incubation. On the procedure:
as §1

A further experiment concerns A549 (EGFR^WT) cells. Kind of experiment: CCK-8 cell growth assay, A549. As to conditions: Homo sapiens, A549; CCK-8, 72 h; read-out: antiproliferative IC50 A549. In kind it is cell-based. On the procedure: Cells were seeded into 96‐well plates at a density of 1500~3000/well in complete medium overnight. Then, cells were treated with various concentrations (0.01~1000 nmol/L) of YL143 for additional 3 days. Viable cell numbers were determined by Cell Counting Kit 8 (CCK8, CK04, Dojindo Laboratories, Japan). Each assay consisted of three replicate wells and repeated at least three times. […] Each IC50 value was expressed as mean ± SD.

Another experiment has as its target T1, EGFR^T790M (Homo sapiens, UniProt P00533, T790M).
T1 construct: purchased Invitrogen
Kind of experiment: FRET-based Z'-Lyte kinase assay, EGFR T790M. As to conditions: AV ± SD; 1.5 h incubation. Format: biochemical. On the procedure:
The kinase activity assay was performed and optimized according to the instructions of Z’‐LYTE™ kinase assay kits from the manufacturer (PV4879, Life, America). In our experiments, 10 concentration gradients from 0.01 nmol/L to 1.0 μmol/L were used for all the compounds.

Experiment [1] deals with phosphorylation of EGFR and Erk in H1975 cells. Kind of experiment: Western blot of EGFR signaling in H1975 cells. In kind it is cell-based, human. Particulars: 4 h. On the procedure:
(§2) Cells were treated with various concentrations of compound for designed time. Then, cells were lysed using 1 × SDS sample lysis buffer (CST recommended) with protease and phosphatase inhibitors. Cell lysates were loaded and electrophoresed onto 8–12% SDS‐PAGE gel, and then, separated proteins were transferred to a PVDF film. The film was blocked with 5% fat‐free milk in TBS solution containing 0.5% Tween‐20 for 4 h at room temperature and then incubated with corresponding primary antibody (1:1000–1:200) overnight at 4°C. After washing with TBST, HRP‐conjugated secondary antibody was incubated for 2 h. And the protein signals were visualized by ECL Western Blotting Detection Kit (Thermo Scientific, Waltham, MA) and detected with Amersham Imager 600 system (GE, America).
(§3) Cells were treated with or without compound YL143 for 4 h at indicated concentration, respectively. Cells were harvested for Western blot analysis. […] NCI‐H1975 cells were treated with or without compound YL143(100 nmol/L) for 4 h, and then the medium with compound was removed and fresh medium was added. At the indicated time points, cells were harvest and proteins were extracted and subjected to Western blot analysis.
On the technique in general: A western blot detects proteins with antibodies after separation by electrophoresis.

In the next experiment the test system is H1975 cells. Kind of experiment: Cell cycle analysis by flow cytometry (propidium iodide). Format: cell-based, human. On the procedure:
The effect of YL143 to induce cell cycle arrest and apoptosis in H1975 cells was investigated by flow cytometry analysis. […] Treatment with 300 nmol/L of YL143 for 48 h led to 82.11% G0/G1 phase arrest and 34.1% apoptosis. […] (Fig. 3C).
(§4) Figure 3 YL143 induces G0/G1 cell cycle arrest and apoptosis in H1975 cells. (A) YL143 induces G0/G1 cell cycle arrest in H1975 cells H1975 cells were treated with 3, 30 or 300 nmol/L for 48 h before DNA labeling by propidium iodide and cell cycle analysis by flow cytometry. (B) YL143 induces apoptosis in H1975 cells. H1975 cells were treated with 3, 30 or 300 nmol/L for 48 h before DNA labeling by Annexin V and 7‐AAD and cell apoptosis analysis by flow cytometry. (C) The effect of YL143 on the expression of CDK4, Cyclin D2, CDK2, Cyclin E, Caspase‐9 and Caspase‐3 was tested by western blotting. The cells were treated with YL143 from 3 to 300 nmol/L for 48 h. Representative results are shown and similar results were obtained in three other independent trials. […]
(In flow cytometry, cells or beads pass a laser one at a time.)

Another experiment has as its target EGFR^L858R/T790M (Homo sapiens, UniProt P00533, L858R/T790M). Kind of experiment: Compound washout assay on H1975 cells (Western blot). In kind it is cell-based. As to conditions: 100 nmol/L for 4 h, then washout, 24 h. On the procedure: as §2, §3
In experiment [2] the test system is CDK2, CDK4, cyclin D2, cyclin E, caspase-3, caspase-9 in H1975 cells. Nature of the experiment: Western blot of cell cycle and apoptosis proteins in H1975 cells. Particulars: 3 to 300 nmol/L, 48 h. Format: cell-based, human. On the procedure:
as §2
as §4, with “blotting.” for “blotting. The cells were treated with YL143 from 3 to 300 nmol/L for 48 h. Representative results are shown and similar results were obtained in three other independent trials.”

Chain of PDGFRA (P16234 24-1089, species assumed): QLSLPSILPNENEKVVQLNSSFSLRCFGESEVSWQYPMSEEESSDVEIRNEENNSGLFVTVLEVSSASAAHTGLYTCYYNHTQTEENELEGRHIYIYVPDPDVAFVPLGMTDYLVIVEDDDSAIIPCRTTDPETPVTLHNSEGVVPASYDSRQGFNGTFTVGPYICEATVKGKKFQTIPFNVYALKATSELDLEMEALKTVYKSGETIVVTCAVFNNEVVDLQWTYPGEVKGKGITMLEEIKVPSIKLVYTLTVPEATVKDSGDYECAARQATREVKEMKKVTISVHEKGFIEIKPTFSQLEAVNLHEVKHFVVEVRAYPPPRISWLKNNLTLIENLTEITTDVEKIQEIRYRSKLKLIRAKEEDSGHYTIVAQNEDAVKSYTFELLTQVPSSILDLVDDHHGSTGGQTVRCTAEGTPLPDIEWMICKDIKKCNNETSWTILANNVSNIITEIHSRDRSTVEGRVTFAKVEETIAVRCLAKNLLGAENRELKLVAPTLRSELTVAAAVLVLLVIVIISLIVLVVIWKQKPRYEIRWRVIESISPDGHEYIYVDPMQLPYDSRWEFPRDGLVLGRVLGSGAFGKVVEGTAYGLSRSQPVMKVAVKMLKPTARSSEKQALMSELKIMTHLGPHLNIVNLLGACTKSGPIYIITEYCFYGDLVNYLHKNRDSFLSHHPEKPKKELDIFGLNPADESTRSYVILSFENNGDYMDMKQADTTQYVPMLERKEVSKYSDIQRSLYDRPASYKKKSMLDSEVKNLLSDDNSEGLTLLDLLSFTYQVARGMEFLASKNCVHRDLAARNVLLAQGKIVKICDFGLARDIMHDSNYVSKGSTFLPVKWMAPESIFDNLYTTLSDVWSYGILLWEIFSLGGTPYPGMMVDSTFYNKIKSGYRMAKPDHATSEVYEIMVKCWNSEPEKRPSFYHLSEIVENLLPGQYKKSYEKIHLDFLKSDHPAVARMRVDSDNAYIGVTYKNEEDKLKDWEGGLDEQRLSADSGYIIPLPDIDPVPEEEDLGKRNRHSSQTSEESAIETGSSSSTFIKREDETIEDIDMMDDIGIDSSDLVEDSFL
Chain of AKT3 (Q9Y243 whole entry, species assumed): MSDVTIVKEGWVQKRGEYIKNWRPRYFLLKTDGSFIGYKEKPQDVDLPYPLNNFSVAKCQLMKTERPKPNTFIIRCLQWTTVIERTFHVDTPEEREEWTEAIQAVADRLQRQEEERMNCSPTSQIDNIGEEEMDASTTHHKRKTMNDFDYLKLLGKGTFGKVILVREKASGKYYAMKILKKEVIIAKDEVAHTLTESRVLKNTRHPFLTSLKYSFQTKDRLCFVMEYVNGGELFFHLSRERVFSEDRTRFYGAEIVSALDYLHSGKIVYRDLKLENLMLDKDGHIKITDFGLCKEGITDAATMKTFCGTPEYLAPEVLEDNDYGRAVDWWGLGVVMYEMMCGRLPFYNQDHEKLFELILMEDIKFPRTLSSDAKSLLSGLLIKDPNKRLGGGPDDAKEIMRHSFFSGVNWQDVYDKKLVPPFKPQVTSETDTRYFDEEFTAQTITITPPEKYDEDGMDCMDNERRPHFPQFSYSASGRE
Chain of ZAK (Q9NYL2 whole entry, species assumed): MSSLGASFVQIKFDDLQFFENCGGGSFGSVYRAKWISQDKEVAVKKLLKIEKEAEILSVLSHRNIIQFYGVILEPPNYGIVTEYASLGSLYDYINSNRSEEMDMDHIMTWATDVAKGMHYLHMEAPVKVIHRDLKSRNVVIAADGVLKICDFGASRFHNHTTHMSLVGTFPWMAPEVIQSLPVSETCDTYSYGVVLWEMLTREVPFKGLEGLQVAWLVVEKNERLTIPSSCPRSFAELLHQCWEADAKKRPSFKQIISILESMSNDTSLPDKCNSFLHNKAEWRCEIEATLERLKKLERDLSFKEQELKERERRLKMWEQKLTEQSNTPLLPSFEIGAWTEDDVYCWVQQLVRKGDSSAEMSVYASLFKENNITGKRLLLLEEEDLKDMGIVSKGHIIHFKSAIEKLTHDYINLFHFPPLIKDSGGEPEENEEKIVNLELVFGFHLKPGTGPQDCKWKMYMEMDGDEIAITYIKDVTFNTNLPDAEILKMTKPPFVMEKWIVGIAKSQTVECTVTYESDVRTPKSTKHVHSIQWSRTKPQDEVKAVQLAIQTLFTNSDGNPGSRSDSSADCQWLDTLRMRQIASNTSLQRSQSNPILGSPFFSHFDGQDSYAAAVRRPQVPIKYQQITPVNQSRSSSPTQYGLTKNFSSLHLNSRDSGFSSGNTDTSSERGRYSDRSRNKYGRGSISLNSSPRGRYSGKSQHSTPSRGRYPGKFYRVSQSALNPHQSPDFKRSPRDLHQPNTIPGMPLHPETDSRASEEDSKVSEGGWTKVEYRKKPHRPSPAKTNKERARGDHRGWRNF

One may read the IC50 as the concentration at which inhibition is half-maximal. In the case of `C=CC(=O)Nc1cc(C)cc(-n2c(=O)cc(C)c3cnc(Nc4ccc(N5CCN(C)CC5)cc4OC)nc32)c1` [YL143, N‐(3‐(2‐((2‐Methoxy‐4‐(4‐methylpiperazin‐1‐yl)phenyl)amino)‐5‐methyl‐7‐oxopyrido [2,3‐d]pyrimidin‐8(7H)‐yl)‐5‐methylphenyl)acrylamide], the half-maximal inhibitory concentration (IC50) at PDGFRA was above 10 µM; against ZAK, above 10 µM; at AKT3 it was above 10 µM; in the experiment on A549 (EGFR^WT) cells, above 1 µM; on EGFR^T790M, 0.0078 ± 0.0011 µM. Also, the “phosphorylation of EGFR and Erk” value in experiment [1] was “dose‐dependently inhibited”. In the experiment on H1975 cells (300 nmol/L, 48 h), this compound showed a G0/G1 phase fraction of 82.11%. Also, in the experiment with H1975 cells (H1975 cells, 30 nmol/L), the “cell cycle arrest and apoptosis” value is “induces G0/G1 phase arrest and apoptosis”. Also, the “EGFR^L858R/T790M phosphorylation recovery after withdrawal” value at EGFR^L858R/T790M is recorded as “no EGFR^L858R/T790M phosphorylation recovery was observed”. For the same compound, in [2], the “protein levels of CDK2, CDK4, cyclin D2, cyclin E” value is “dose‐dependently decreased”.
